What all share (experiment): inhibition of tumour cell growth, NCI panel, 48 h
Assay [1] has as its system SK-MEL-2 melanoma.
Assay [2] concerns U251 CNS.
Assay [3] has as its system HS 578T breast.
The subject of assay [4] is HCT-116 colon.
Assay [5] concerns MALME-3M melanoma.
Assay [6] relates to SK-MEL-28 melanoma.
Assay [7] deals with DU-145 prostate.
Assay [8] deals with OVCAR-3 ovarian.
Assay [9] relates to EKVX NSCLC.
The test system of assay [10] is T-47D breast.

Structures are written as SMILES. ≈ marks a conversion by molar mass, not a printed value.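 Briefly, cells in 96-well plates were exposed to five compound concentrations for 48 h, and endpoints were estimated by linear interpolation. GI50 marks 50% less growth. TGI marks complete inhibition of growth.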 Some results are limits rather than exact numbers.

In the case of `COc1ccc(-n2c3c(c4cc(O)ccc42)Cc2ccccc2C3=O)cc1`, the TGI in [1], in assay [2], in assay [3], in assay [4], in [5] and in assay [6] was > 100 µM in each case. Also, the TGI in assay [7] and in [8] was > 100 µM each time.

`CCOCC(=O)N(C)c1cccc2c3c(n(C)c12)CCCCC3`: the TGI in [1], in assay [9], in [2], in assay [4], in assay [5] and in [6] was > 100 µM throughout. In addition, in assay [8], the TGI is > 100 µM.

Regarding `CC1C(=O)c2cc3c(cc2CCN(C)Cc2c1ccc1c2OCO1)OCO3` (configuration not stated), the GI50 was > 75 µg/mL in assay [1]; > 75 µg/mL in assay [10]; > 75 µg/mL in assay [9]; 67.5 µg/mL in assay [2]; > 75 µg/mL in [3]; 23.4 µg/mL (≈ 63.8 µM) in assay [4]. In addition, the GI50 in assay [5] was > 75 µg/mL; in [6] it was 30.9 µg/mL; in assay [7], > 75 µg/mL; in [8], > 75 µg/mL. In addition, the TGI in [1], in assay [10], in assay [9], in assay [2], in assay [3] and in assay [4] was > 75 µg/mL each time. The TGI in [5], in assay [6], in assay [7] and in assay [8] was > 75 µg/mL throughout.

On to `O=C(O)C1CCCCN1C(=O)Cc1c[nH]c2ccccc12` (configuration not stated), for which the TGI in assay [1], in assay [10], in assay [9], in assay [2], in assay [4] and in assay [5] was > 100 µM each time. For the same compound, the TGI in assay [6], in assay [7] and in assay [8] was > 100 µM in each case.

`Cc1oc(N)c(S(=O)(=O)c2cc3ccccc3n(O)c2=N)c1C`: the TGI in [1], in assay [10], in assay [9], in assay [2], in [3] and in [5] was > 100 µM throughout. Moreover, the TGI in assay [6], in [7] and in [8] was > 100 µM in each case.

Turning to `CCOC(=O)c1c(-c2cccc(Cl)c2)c(C(=O)OC)c(C)c2sc(C=O)nc12`, the TGI in assay [1] came out at 37.1 µM; in assay [10] it was 45.6 µM; in assay [9], 31.9 µM; in [2] it was 32.2 µM; in [3], 50.5 µM; in [4] it was 21.1 µM. Moreover, the TGI in assay [5] amounted to 38 µM; in assay [6], 34.5 µM; in assay [7] it was 37.8 µM; in assay [8], 31.3 µM.

As to `O=C(/C=C1\N=C(c2ccccc2)N(c2nc3c(Cl)cc(Cl)cc3s2)C1=O)/C=C/c1ccccc1`, the TGI in [1], in [10], in [9], in assay [2], in [3] and in assay [4] was > 100 µM in each case. The TGI in assay [5], in assay [6], in [7] and in assay [8] was > 100 µM each time.

In the case of `COC(=O)C1CC23C4=C(CCC41)CCC1CN4CC(C)C(CC(OC(C)=O)C12COC(C)=O)C43O` (configuration not stated), the TGI in assay [1], in assay [10], in assay [9], in assay [2], in [3] and in assay [4] was > 100 µM in each case. Further, the TGI in [5], in [6], in assay [7] and in assay [8] was > 100 µM throughout.

In the case of `C[N+]1(CCC(=O)c2ccccc2)CCC2CCC(C2)C1` (configuration not stated), the TGI in [1], in assay [10], in assay [9], in assay [2], in assay [3] and in assay [4] was > 100 µM each time. Moreover, the TGI in assay [5], in assay [6], in assay [7] and in assay [8] was > 100 µM in each case.

On to `CN(C)C(=O)OC1=CC2CCC(C1)N2C` (configuration not stated), for which the TGI in assay [1], in [10], in [9], in [2], in assay [3] and in assay [4] was > 100 µM in each case. The TGI in [5], in [6], in [7] and in assay [8] was > 100 µM each time.

On to `O=C1/C(=C/c2[nH]ncc2-c2ccc(Cl)cc2)C(=O)N(c2ccccc2)C1c1ccccc1` (configuration not stated), for which the TGI in [1] is 35.2 µM; in assay [10] it was 17.3 µM; in assay [9] it was 51.3 µM; in [2], 50.2 µM; in [3], 24.2 µM; in [4], 25 µM. For the same compound, the TGI in assay [5] came out at 62.5 µM; in assay [6] it was 50.4 µM; in assay [7], 50.3 µM; in assay [8], 26.9 µM.

Regarding `Cc1n[n+]([O-])c(C)cc1[N+](=O)[O-]`, the TGI in assay [1] came out at 42.3 µM; in assay [10], 35.3 µM; in assay [9] it was 45.4 µM; in assay [2], 51.9 µM; in assay [3], 66.9 µM; in assay [4], 31.6 µM. For the same compound, the TGI in [5] came out at 35.3 µM; in [6], 31.9 µM; in [7] it was 51.2 µM; in assay [8] it was 27.6 µM.

Turning to `Cc1ccc2nc(-c3ccc(NC(=O)c4ccc(N)cc4)c(S(=O)(=O)O)c3)sc2c1`, the TGI in [10], in assay [9], in [2], in [3], in assay [4] and in [5] was > 100 µM in each case. Further, the TGI in [6], in assay [7] and in assay [8] was > 100 µM throughout.

`COC(=O)c1cc(NC(=O)c2cc(NC(=O)Cc3c[nH]c4ccccc34)cn2C)cn1C`: the TGI in assay [1] was 68.1 µM; in assay [10], > 100 µM; in [9], 74.3 µM; in assay [4], 84.1 µM; in assay [5], 77.2 µM; in assay [6], > 100 µM. Besides, the TGI in [7] and in [8] was > 100 µM throughout.

On to `O=C(Cc1csc2nc(-c3ccc(Cl)cc3)cn12)N/N=C/c1ccccc1O`, for which the GI50 is 4.16 µM in assay [10]; 3.26 µM in [9]; 1.77 µM in assay [2]; 10 µM in assay [3]; 5.56 µM in assay [5]; 5.5 µM in assay [6]. Further, the GI50 in assay [7] was 2.72 µM; in assay [8], 0.36 µM. The TGI in [10] is > 100 µM; in assay [9] it was > 100 µM; in [2] it was 35.4 µM; in assay [3], > 100 µM; in [5], 94.2 µM; in assay [6], > 100 µM. In addition, the TGI in assay [7] is > 100 µM; in [8], 83.8 µM.

Turning to `N#Cc1ccccc1C#C/C=C\C#Cc1ccccc1N`, the GI50 is 1.17 µM in assay [1]; 8.72 µM in assay [10]; 10 µM in assay [9]; 4.16 µM in assay [2]; 5.29 µM in [3]; 2.86 µM in assay [5]. The GI50 was 9.78 µM in assay [6], 13.9 µM in assay [7] and 0.165 µM in assay [8]. In addition, the TGI in [1] was 8.2 µM; in assay [10], > 100 µM; in [9], > 57.3 µM; in [2], > 42.5 µM; in assay [3] it was > 25.5 µM; in assay [5], 40.2 µM. Moreover, the TGI in assay [6] was > 74 µM; in assay [7], > 100 µM; in [8], 2.64 µM.

As for `O=C1C2Cc3c(n(C(=O)c4ccccc4)c4ccccc34)CC2C(=O)N1c1ccc(Nc2ccc(N3C(=O)C4Cc5c(n(C(=O)c6ccccc6)c6ccccc56)CC4C3=O)cc2)cc1` (configuration not stated), the TGI in assay [10], in [9], in assay [2], in assay [3], in [4] and in assay [5] was > 100 µM each time. The TGI in assay [6], in [7] and in assay [8] was > 100 µM each time.

As for `O=C(CC(c1ccccc1)C1C(=O)NC(=S)NC1=O)c1ccc([N+](=O)[O-])cc1` (configuration not stated), the TGI in assay [1], in assay [10], in assay [9], in assay [2], in assay [3] and in [4] was > 100 µM in each case. For the same compound, the TGI in assay [5], in assay [6], in assay [7] and in assay [8] was > 100 µM throughout.

Turning to `Cn1c2[n+](c3nc(N)[nH]c(=O)c31)C1OC(C2)C(O)C1O` (configuration not stated), the TGI in [1], in assay [9], in assay [2], in assay [4], in assay [5] and in assay [6] was > 100 µM each time. For the same compound, the TGI in assay [8] is > 100 µM.

For the compound `COc1cccc(/C=N/[N-]C(N)=O)c1[O-].[Ni+2].[OH3+]`, the TGI in assay [1] came out at 1.46 µM; in assay [9] it was 2.57 µM; in assay [2] it was 0.816 µM; in [4], 0.27 µM; in assay [5], 2.2 µM; in assay [6] it was 1.72 µM. Further, the TGI in assay [8] was 0.596 µM.

In the case of `CC1=CC(O)C(C(O)(C(F)(F)F)C(F)(F)F)C(C)(C)C1` (configuration not stated), the TGI in [1], in assay [10], in assay [9], in assay [2], in assay [3] and in assay [4] was > 10 µM in each case. Moreover, the TGI in assay [5], in assay [6], in assay [7] and in assay [8] was > 10 µM throughout.

In the case of `CS(C)(=O)=Nn1c(=O)n2n(c1=O)C1c3ccccc3C2c2ccccc21`, the TGI in assay [1], in assay [10], in assay [9], in [2], in assay [5] and in [6] was > 100 µM each time. The TGI in assay [7] and in assay [8] was > 100 µM each time.

Turning to `CC(C)CC1c2[nH]c3ccccc3c2C[C@H]2C(=O)NC(CCCCNC(=O)OC(C)(C)C)C(=O)N12` (some centres not stated), the TGI was 46.8 µM in assay [1]; 16.1 µM in assay [10]; > 100 µM in [9]; > 100 µM in assay [2]; 25.6 µM in assay [3]; > 100 µM in assay [4]. In addition, the TGI was 78.5 µM in [5], > 100 µM in [6], > 100 µM in [7] and 16.6 µM in [8].

As for `CC1(C(=O)O)C[C@](C)(C(=O)OCc2ccccc2)C[C@](C)(C(=O)OCc2ccccc2)C1` (some centres not stated), the TGI is 39.3 µM in assay [1]; > 100 µM in [10]; 75.7 µM in [9]; 89.8 µM in assay [3]; 57.9 µM in assay [4]; > 100 µM in assay [5]. Besides, the TGI in [6] was > 100 µM; in assay [7], > 100 µM; in [8], 73.7 µM.

Consider `O=C(O)C(O)C(O)C(O)C(O)C(=O)O` (configuration not stated), for which the TGI in [1], in assay [10], in assay [9], in [2], in [4] and in [5] was > 100 µM in each case. The TGI in assay [6], in assay [7] and in [8] was > 100 µM in each case.

As for `CCN1CCN(c2nc3ccccc3nc2C(=O)c2ccc(OC)c(OC)c2)CC1`, the TGI in assay [1] is > 100 µM; in [10], > 100 µM; in [9], 57.4 µM; in assay [2], 30.2 µM; in assay [4] it was 19.7 µM; in assay [5], 36.5 µM. In addition, the values for the TGI in assay [6], in [7] and in assay [8] were 27.3 µM, > 100 µM and 60.6 µM, respectively.

The record behind these values is PubChem BioAssay (NCI).
